Literature values, collected in patent US12000829B2, “Selection of patients for combination therapy” (SYNDAX PHARMACEUTICALS, INC., priority 2018, dated 2024).
Read-outs that look alike come from different tables or passages of the source.

Tests used:
[1] = test system: syngeneic mouse tumor models of lung and renal cell carcinoma; conditions: two syngeneic mouse tumor models; tumor growth and survival
[2] = test system: modestly immunogenic mouse tumors; conditions: in combination with immune checkpoint blockade agents
[3] = test system: MDSCs and CD14+HLA-DR^Hi monocytes; conditions: ER+ breast cancer patients, combined with exemestane
[4] = test system: squamous or non-squamous NSCLC; conditions: NSCLC and metastatic melanoma cohorts
[5] = test system: melanoma
[6] = test system: human carcinoma cell lines

Nc1ccccc1NC(=O)c1ccc(CNC(=O)OCc2cccnc2)cc1 [Entinostat, N-(2-aminophenyl)-4-[N-(pyridine-3-yl)methoxycarbonylamino-methyl]-benzamide]
antitumor effect of PD-1 inhibition [1]: enhanced the antitumor effect of PD-1 inhibition
effect on tumors [2]: can eradicate modestly immunogenic mouse tumors
effect on CD14+HLA-DR^Hi monocytes in patients [3]: increased immunocompetent CD14+HLA-DR^Hi monocytes
effect on MDSCs in patients [3]: reduction of immunosuppressive MDSCs

MPDL3280A: human anti-PD-L1 mAb with engineered Fc domain minimizing ADCC
responses [4]: durable responses

Pembrolizumab: humanized monoclonal IgG4 anti-PD-1 antibody
additional patients with unconfirmed responses ([5]; human, in vivo): 8 patients
biopsies of responding tumors ([5]; human, in vivo): dense infiltration by CD8^+ T cells
rate of severe toxicities ([5]; less dose intense cohorts): < 10%

avelumab: fully human anti-PD-L1 IgG1 antibody
lysis ([6]; NK cells as effectors): Lysis was increased
lysis ([6]; NK cells preactivated with IL-12): increased lysis
lysis ([6]; NK-mediated ADCC vs whole PBMCs or dendritic cells isolated from PBMCs): Little or no lysis
human carcinoma cell lines in which ADCC was induced ([6]; PBMCs as effectors): 8 out of 18
cell lines with augmented lysis ([6]; tumor cell lines pretreated with IFN-γ): 4 out of 10
